Where “and” joins values, the source holds several entries; their conditions need not be identical. Equal entries are not always repeated. Where two headings read alike, the source gives them in different places.
What was measured:
[1] = tested on: panel of unrelated viruses; conditions: all other viruses of the panel, up to highest concentration tested, 50 µM
HIV-1 = assay: microbe, parasite or virus in culture; conditions: Human immunodeficiency virus 1, PBMC
Method: IC50 values were determined, and a persistence ratio was calculated for each compound. GFP, green fluorescent protein; hpi, hours post-infection; IC50, half maximal inhibitory concentration.
Assay media in each well were then evacuated and the cells resuspended using the gentle setting on the BlueWasher (BlueCatBio; Lebanon, NH, USA). Centrifugation and wash steps were repeated to ensure removal of extracellular compound.
MT4-GFP cells were infected with WT R8 virus, and PBMCs were infected with pNLG1-P2A-GFP. […] IC50 values were determined by nonlinear 4-parameter curve fitting of the data. A persistence ratio was calculated for each compound by dividing the IC50 from variable B (IC50B) by the IC50 from variable A (IC50A).

[2] = PK in rhesus monkeys (plasma); assay type: in vivo
Method: For the IV arm of the study, MK-8527 was administered as a bolus via the cephalic vein at 0.5 mg/kg in 30% Captisol (Ligand Pharmaceuticals, Lawrence, KS, USA). […] After the 6-h time point, they were returned to their cages and placed in a bleed chair for the subsequent time points. No anesthesia was used. As enrichment, animals were pair housed with conspecifics in cages with […]. […] Animals were fed certified primate diet (LabDiet 5048) and given a vitamin C supplement daily. In addition, animals received rotational fruit and vegetables as well as a foraging mix daily. All blood samples were centrifuged at 2,000g for 10 min, and the supernatant plasma samples were removed and stored at -70 °C until further analysis. The concentrations of MK-8527 in plasma were determined by LC-MS/MS assays following a protein precipitation step. Aliquots (50 μL) of plasma were precipitated by addition of 150 μL of acetonitrile solution-containing internal standard (IS), followed by centrifugation at 3,000 rpm for 10 min. A 75-μL aliquot of the supernatant was transferred into a 96-well plate, and 5 μL of each sample was used for analysis. LC-MS/MS analysis was performed on a Transcend LC system with HTS PAL CTC autosampler (Thermo Fisher Scientific, Waltham, MA, USA) interfaced to an API-5000 mass spectrometer using the turbo ion spray interface (Sciex, Framingham, MA, USA). Separation of MK-8527 was achieved on an Xselect HSS XP T3 column (50 × 2.1 mm, 2.5 μm; […] The chromatography for plasma samples was run using gradient elution as follows: the column was equilibrated with 100% A. […] The total run time was 4.15 min. Quantification was done by monitoring the transition of m/z 309 to m/z 169 or 133 for MK-8527. The method was linear across a concentration range of 2-10,000 ng/mL in plasma.

HIV-2ROD = assay: Cytoprotection assay in CEM-SS cells, HIV-2; assay type: cell-based; conditions: Human immunodeficiency virus 2, 144 h, 6 days, read-out: Antiviral potency as IC50, HIV-2 – CEM-SS cells
Method: The antiviral activity of MK-8527 against HIV-1 and HIV-2 was determined in a cytoprotection assay in CEM-SS cells at ImQuest BioSciences (Fredrick, MD, USA). Briefly, CEM-SS cells (National Institute of Health AIDS Research and Reference Reagent Program) were passaged in RPMI 1640 supplemented with 10% heat-inactivated FBS, 2 mM L-glutamine, 100 U/mL penicillin and 100 µg/mL streptomycin prior to use in the antiviral assay. On the day preceding the assay, the cells were split 1:2 to ensure they were in an exponential growth phase at the time of infection. The cells were resuspended at 2.5 × 10^3 cells per well in cell culture medium and added to the drug-containing microtiter plates at 50 µL per well. MK-8527 was tested in triplicate for each experiment, with 12 test concentrations added at 100 µL per well.
Lymphocyte-tropic virus strains HIV-1IIIB or HIV-2ROD (NIH AIDS Research and Reference Reagent Program) were diluted into tissue culture medium such that the amount of virus added to each well in a volume of […] corresponded to the amount determined to yield 85% to 95% cell killing in the untreated virus control wells at 6–7 days. Virus was added immediately after cells were added to the 96-well microtiter plates.
The IC50 for MK-8527 antiviral activity was determined using 4-parameter curve fit calculations.

HIV RT = target: T1, HIV RT (Human immunodeficiency virus type 1 group M subtype B, UniProt P04585); assay: HIV-RT primer extension assay (chain termination); assay type: biochemical; conditions: 1 µM each dNTP
T1 construct: HIV RT (final concentration, 1,200 nM)
Method: The reaction protocol was adapted from previous work. Primers and template used for this assay are described in Fig 8A.
All reagent stocks were in a base assay buffer consisting of 50 mM Tris pH 7.5 and 50 mM NaCl in nuclease-free water. […] Samples were then heated to 95 °C for 10 min prior to storage at −20 °C until being resolved by polyacrylamide gel electrophoresis with 7 M urea.

C#C[C@]1(CO)O[C@@H](n2ccc3c(N)nc(Cl)nc32)C[C@@H]1O [Compound 12, (2R,3S,5R)-5-(4-amino-2-chloro-7H-pyrrolo[2,3-d]pyrimidin-7-yl)-2-ethynyl-2-(hydroxymethyl)tetrahydrofuran-3-ol]
Antiviral activity or cytotoxicity [1]: did not display antiviral activity or cytotoxicity
IC50 (HIV-1; 48 h, read-out: Persistence assay IC50B, PBMCs): 18.1 ± 4.8 nM
IC50 (HIV-1; read-out: Persistence assay IC50A, PBMCs): 1.2 ± 0.2 nM
concentration at 72 h ([2]; monkeys, oral 50 mg/kg, 0.25 hr, listed as MK-8527, 50 mg/kg, read-out: Concentration in plasma, individual subjects): 7.22 µM and 1.93 µM and 8.67 µM
concentration at 72 h ([2]; monkeys, oral 50 mg/kg, 0.5 hr, listed as MK-8527, 50 mg/kg, read-out: Concentration in plasma, individual subjects): 11.00 µM and 4.12 µM and 11.10 µM
concentration at 72 h ([2]; monkeys, oral 50 mg/kg, 1 hr, listed as MK-8527, 50 mg/kg, read-out: Concentration in plasma, individual subjects): 29.80 µM and 7.40 µM and 20.20 µM
concentration at 72 h ([2]; monkeys, oral 50 mg/kg, 2 hr, listed as MK-8527, 50 mg/kg, read-out: Concentration in plasma, individual subjects): 30.50 µM and 11.00 µM and 27.80 µM
concentration at 72 h ([2]; monkeys, oral 50 mg/kg, 4 hr, listed as MK-8527, 50 mg/kg, read-out: Concentration in plasma, individual subjects): 15.20 µM and 15.40 µM
concentration at 72 h ([2]; monkeys, oral 50 mg/kg, 6 hr, listed as MK-8527, 50 mg/kg, read-out: Concentration in plasma, individual subjects): 14.30 µM and 9.31 µM
concentration at 72 h ([2]; monkeys, oral 50 mg/kg, 24 hr, listed as MK-8527, 50 mg/kg, read-out: Concentration in plasma, individual subjects): 1.81 µM and 1.27 µM
concentration at 72 h ([2]; monkeys, oral 50 mg/kg, 30 hr, listed as MK-8527, 50 mg/kg, read-out: Concentration in plasma, individual subjects): 0.81 µM and 0.58 µM
concentration at 72 h ([2]; monkeys, oral 50 mg/kg, 48 hr, listed as MK-8527, 50 mg/kg, read-out: Concentration in plasma, individual subjects): 0.31 µM and 0.26 µM and 0.13 µM
concentration at 72 h ([2]; monkeys, oral 50 mg/kg, 72 hr, listed as MK-8527, 50 mg/kg, read-out: Concentration in plasma, individual subjects): 0.07 µM and 0.05 µM
concentration at 72 h ([2]; monkeys, oral 50 mg/kg, 168 hr, listed as MK-8527, 50 mg/kg, read-out: Concentration in plasma, individual subjects): 0.0143 µM and 0.0113 µM and 0.00651 µM
half-life ([2]; rhesus monkey, plasma, iv, 0.5 mg/kg, monkey, plasma, IV 0.5 mg/kg, read-out: t½ (converted)): ~7 h
concentration at 0.25 h ([2]; rhesus monkey, plasma, po, 50 mg/kg, monkeys, oral 50 mg/kg, 0.25 hr, read-out: Arithmetic Mean Concentration in plasma): 4.94 µM
concentration at 0.5 h ([2]; rhesus monkey, plasma, po, 50 mg/kg, monkeys, oral 50 mg/kg, 0.5 hr, read-out: Arithmetic Mean Concentration in plasma): 7.95 µM
concentration at 1 h ([2]; rhesus monkey, plasma, po, 50 mg/kg, monkeys, oral 50 mg/kg, 1 hr, read-out: Arithmetic Mean Concentration in plasma): 16.4 µM
concentration at 30 h ([2]; rhesus monkey, plasma, po, 50 mg/kg, monkeys, oral 50 mg/kg, 30 hr, read-out: Arithmetic Mean Concentration in plasma): 0.79 µM
concentration at 30 h ([2]; rhesus monkey, plasma, po, 50 mg/kg, monkeys, oral 50 mg/kg, 30 hr, read-out: Concentration in plasma, individual subjects): 1.04 µM
concentration at 48 h ([2]; rhesus monkey, plasma, po, 50 mg/kg, monkeys, oral 50 mg/kg, 48 hr, read-out: Arithmetic Mean Concentration in plasma): 0.22 µM
concentration at 72 h ([2]; rhesus monkey, plasma, po, 50 mg/kg, monkeys, oral 50 mg/kg, 72 hr, read-out: Arithmetic Mean Concentration in plasma): 0.07 µM
concentration at 72 h ([2]; rhesus monkey, plasma, po, 50 mg/kg, monkeys, oral 50 mg/kg, 72 hr, read-out: Concentration in plasma, individual subjects): 0.09 µM
concentration at 168 h ([2]; rhesus monkey, plasma, po, 50 mg/kg, monkeys, oral 50 mg/kg, 168 hr, read-out: Arithmetic Mean Concentration in plasma): 0.01 µM
clearance ([2]; rhesus monkey, plasma, monkey, IV 0.5 mg/kg, read-out: CLp): 12.6 ± 3.3 mL/min/kg
Vd ([2]; rhesus monkey, plasma, monkey, IV 0.5 mg/kg, read-out: Vdss): 4.4 ± 0.8 L/kg
bioavailability ([2]; rhesus monkey, plasma, monkey, oral 1 mg/kg): 100%
concentration at 2 h ([2]; rhesus, rhesus monkey, plasma, po, 50 mg/kg, monkeys, oral 50 mg/kg, 2 hr, read-out: Arithmetic Mean Concentration in plasma): 21.1 µM
concentration at 4 h ([2]; rhesus, rhesus monkey, plasma, po, 50 mg/kg, monkeys, oral 50 mg/kg, 4 hr, read-out: Arithmetic Mean Concentration in plasma): 15.8 µM
concentration at 4 h ([2]; rhesus, rhesus monkey, plasma, po, 50 mg/kg, monkeys, oral 50 mg/kg, 4 hr, read-out: Concentration in plasma, individual subjects): 16.9 µM
concentration at 6 h ([2]; rhesus, rhesus monkey, plasma, po, 50 mg/kg, monkeys, oral 50 mg/kg, 6 hr, read-out: Arithmetic Mean Concentration in plasma): 11 µM
concentration at 6 h ([2]; rhesus, rhesus monkey, plasma, po, 50 mg/kg, monkeys, oral 50 mg/kg, 6 hr, read-out: Concentration in plasma, individual subjects): 10.1 µM
concentration at 24 h ([2]; rhesus, rhesus monkey, plasma, po, 50 mg/kg, monkeys, oral 50 mg/kg, 24 hr, read-out: Arithmetic Mean Concentration in plasma): 1.75 µM
concentration at 24 h ([2]; rhesus, rhesus monkey, plasma, po, 50 mg/kg, monkeys, oral 50 mg/kg, 24 hr, read-out: Concentration in plasma, individual subjects): 2.34 µM
IC50 (HIV-2ROD): 0.007 nM

C#C[C@]1(COP(=O)(O)OP(=O)(O)OP(=O)(O)O)O[C@@H](n2ccc3c(N)nc(Cl)nc32)C[C@@H]1O [MK-8527-TP]
Chain termination mechanism (ICT/DCT) (HIV RT): both ICT and DCT occurred
